Test system: CMV
Assay: Study HDP-CDV-350: virologic response of refractory CMV infection in HCT recipients
Type: in vivo, human (allogeneic HCT recipients)
Settings: for Proportion of subjects with ≧1 log10 last on-treatment reduction or last on-treatment reduction to ≦ LLOQ / Proportion of subjects with ≧1 log10 postbaseline reduction in CMV DNAemia or postbaseline reduction to ≦ LLOQ: LLOQ 100 copies/mL
Method: The virologic responses of 16 allogeneic HCT recipients enrolled and treated with HDP-CDV due to refractory CMV infection or disease and/or intolerance to available anti-CMV medications were evaluated.
All subjects completed a screening assessment (including obtaining written informed consent and, where applicable, assent) prior to initiating treatment with HDP-CDV.
HDP-CDV was given orally twice weekly (BIW); 100 mg BIW for adults or 2 mg/kg BIW for pediatrics. […] Eligible subjects received either a weight-based or fixed dose of HDP-CDV. Pediatric subjects (≦12 years old) received a 4 mg/kg total weekly dose (not-to-exceed 200 mg), as either 2 mg/kg twice-weekly (BIW) or 4 mg/kg once-weekly (QW). Adults and adolescent (13-17 years old) subjects received a 200 mg (not to exceed 4 mg/kg) total weekly dose, as either 100 mg BIW or 200 mg QW. BIW doses were administered at alternating 3- and 4-day intervals and QW doses on the same day each week.
Subjects were treated for an initial period of up to 3 months until either resolution or stabilization of their clinical disease or for 4 weeks following resolution of viral DNAemia, depending on the disease under treatment, whichever was longer. Treatment is extended for up to an additional 3 months, for a total duration of 6 months treatment, depending on the subject's clinical response.
Subjects underwent extensive safety monitoring, including routine safety laboratory assessments, physical examination, and vital sign measurements at regular intervals. In addition, subjects were monitored for viral DNA burden in plasma (DNAemia) and other affected compartments (e.g., urine, stool, CSF, etc.). Assessments were performed weekly for the first month, every 1 or 2 weeks for the next 2 months, and monthly thereafter for as long as treatment was continued. Subjects were monitored for adverse events (AEs) and for selected concomitant medication throughout the entire study, including the 1 month posttreatment follow-up period.

## CCCCCCCCCCCCCCCCOCCCOP(=O)(O)COC(CO)Cn1ccc(N)nc1=O (stereo not drawn) [HDP-CDV]
16 HCT recipients, 100 mg BIW adults or 2 mg/kg BIW pediatrics
  Maximal reduction in CMV VL from BL, mean (range): 1.13 (−0.30-2.60) log10
16 subjects, qPCR plasma
  Mean last on-treatment change from baseline CMV DNAemia: −0.63 log10 copies/mL
  Mean maximal postbaseline change in CMV DNAemia: −1.13 log10 copies/mL
+1 Month Posttreatment, N 8
  Change from Baseline CMV DNAemia, Mean: −1.00 log10 copies/mL
+1 Week Posttreatment, N 9
  Change from Baseline CMV DNAemia, Mean: −0.63 log10 copies/mL
  Proportion of subjects with ≧1 log10 last on-treatment reduction or last on-treatment reduction to ≦ LLOQ: (62.5%)
  Proportion of subjects with ≧1 log10 postbaseline reduction in CMV DNAemia or postbaseline reduction to ≦ LLOQ: (81.3%)
Month 3, N 7
  Change from Baseline CMV DNAemia, Mean: +0.16 log10 copies/mL
Month 4, N 4
  Change from Baseline CMV DNAemia, Mean: −0.89 log10 copies/mL
Month 5, N 3
  Change from Baseline CMV DNAemia, Mean: −0.84 log10 copies/mL
Month 6, N 3
  Change from Baseline CMV DNAemia, Mean: −0.80 log10 copies/mL
Thirteen of 16 subjects
  subjects with >1 log10 reduction or ≦LOQ (2 log10) during tx: 81%
Week 2, N 16
  Change from Baseline CMV DNAemia, Mean: −0.22 log10 copies/mL
Week 3, N 15
  Change from Baseline CMV DNAemia, Mean: −0.30 log10 copies/mL
Week 4, N 15
  Change from Baseline CMV DNAemia, Mean: −0.52 log10 copies/mL
Week 5, N 14
  Change from Baseline CMV DNAemia, Mean: −0.63 log10 copies/mL
Week 6, N 6
  Change from Baseline CMV DNAemia, Mean: −0.66 log10 copies/mL
Week 7, N 10
  Change from Baseline CMV DNAemia, Mean: −0.16 log10 copies/mL
Week 8, N 3
  Change from Baseline CMV DNAemia, Mean: +0.22 log10 copies/mL
Week 9, N 8
  Change from Baseline CMV DNAemia, Mean: −0.02 log10 copies/mL
Week 10, N 2
  Change from Baseline CMV DNAemia, Mean: +0.11 log10 copies/mL
Week 11, N 9
  Change from Baseline CMV DNAemia, Mean: +0.06 log10 copies/mL
subjects/N
  Proportion of subjects with ≧1 log10 last on-treatment reduction or last on-treatment reduction to ≦ LLOQ: 10/16
  Proportion of subjects with ≧1 log10 postbaseline reduction in CMV DNAemia or postbaseline reduction to ≦ LLOQ: 13/16

— patent publication US20140303092A1 (CHIMERIX, INC., priority 2011, published 2014)
